Data reported in ChEMBL document CHEMBL3785017, “Induction of apoptosis and differentiation by atractylenolide-1 isolated from Atractylodes macrocephala in human leukemia cells” (Bioorg Med Chem Lett, 2016).
Converted amounts (≈) assume the structure as drawn. The source made the active and inactive calls. The calls are words filed in the database; no cut-off is given here.

Tests used:
[1] = Induction of cell differentiation in human U937 cells assessed as upregulation of CD14 at 10 uM after 72 hrs by flow cytometry; format: functional, cell-based; conditions: U-937
U-937 [2] = test: Induction of phagocytosis in human U937 cells at 10 uM measured using fluorescent latex beads after 2 hrs by flow cytometry; format: functional, cell-based
K562 [3] = test: Induction of phagocytosis in human K562 cells at 10 uM incubated for 4 to 6 days followed by fluorescent latex beads addition measured after 2 hrs by flow cytometry; format: functional, cell-based
K562 [4] = test: Induction of cell differentiation in human K562 cells assessed as upregulation of CD14 at 10 uM after 72 hrs by flow cytometry; format: functional, cell-based
U-937 [5] = test: Induction of apoptosis in human U937 cells assessed as fragmented chromosomal DNA at 6.25 to 50 ug/ml after 12 to 48 hrs by agarose gel electrophoresis; format: functional, cell-based
K562 [6] = test: Induction of cell differentiation in human K562 cells assessed as upregulation of CD14 at 50 ug/ml after 72 hrs by flow cytometry (reference value: 6.4%); format: functional
[7] = Induction of cell differentiation in human U937 cells assessed as upregulation of CD68 at 12.5 ug/ml after 72 hrs by flow cytometry (reference value: 5.9%); format: functional, cell-based; conditions: U-937
U-937 [8] = test: Induction of phagocytosis in human U937 cells at 6.25 to 12.5 ug/ml measured using fluorescent latex beads after 2 hrs by flow cytometry relative to control; format: functional
U-937 [9] = test: Induction of apoptosis in human U937 cells assessed as procaspase 9 degradation at 6.25 to 50 ug/ml after 24 hrs by Western blot analysis; format: functional, cell-based
K562 [10] = test: Cell cycle arrest in human K562 cells assessed as accumulation at sub G1 phase at 50 to 100 ug/ml after 48 hrs by propidium iodide staining based flow cytometry; format: functional
Jurkat [11] = test: Induction of apoptosis in human Jurkat T cells assessed as fragmented chromosomal DNA at 6.25 to 50 ug/ml after 12 to 48 hrs by agarose gel electrophoresis; format: functional, cell-based
K562 [12] = test: Induction of cell differentiation in human K562 cells assessed as upregulation of CD14 at 12.5 ug/ml after 72 hrs by flow cytometry (reference value: 6.4%); format: functional
[13] = Cell cycle arrest in human Jurkat T cells assessed as accumulation at sub G1 phase at 50 ug/ml after 24 hrs by propidium iodide staining based flow cytometry (reference value: 0.9%); format: functional
[14] = Cytotoxicity against human Jurkat T cells assessed as growth inhibition after 48 hrs by MTT assay; format: functional, cell-based
K562 [15] = test: Cytotoxicity against human K562 CML cells assessed as growth inhibition treated with high doses of compound after 48 to 72 hrs by MTT assay; format: functional, cell-based
[16] = Induction of cell differentiation in human U937 cells assessed as upregulation of CD14 at 6.25 ug/ml after 72 hrs by flow cytometry (reference value: 4.3%); format: functional, cell-based; conditions: U-937
Jurkat [17] = test: Induction of cell death in human Jurkat T cells; format: functional, cell-based
[18] = Cell cycle arrest in human Jurkat T cells assessed as accumulation at sub G1 phase at 12.5 ug/ml after 24 hrs by propidium iodide staining based flow cytometry (reference value: 0.9%); format: functional
Jurkat [19] = test: Induction of apoptosis in human Jurkat T cells assessed as procaspase 9 degradation at 6.25 to 50 ug/ml after 24 hrs by Western blot analysis; format: functional, cell-based
[20] = Cell cycle arrest in human U937 cells assessed as accumulation at sub G1 phase at 50 to 100 ug/ml after 24 hrs by propidium iodide staining based flow cytometry; format: functional; conditions: U-937
[21] = Cytotoxicity against human U937 cells assessed as growth inhibition after 48 hrs by MTT assay; format: functional, cell-based; conditions: U-937, 48 h
Jurkat [22] = test: Induction of apoptosis in human Jurkat T cells assessed as PARP degradation at 50 ug/ml after 24 hrs by Western blot analysis; format: functional, cell-based
K562 [23] = test: Induction of cell death in human K562 cells at 12.5 to 50 ug/ml after 48 hrs; format: functional, cell-based
U-937 [24] = test: Induction of apoptosis in human U937 cells assessed as PARP degradation at 50 ug/ml after 24 hrs by Western blot analysis; format: functional, cell-based
U-937 [25] = test: Induction of cell death in human U937 at 12.5 to 25 ug/ml cells after 24 hrs; format: functional, cell-based
U-937 [26] = test: Induction of apoptosis in human U937 cells assessed as procaspase 3 degradation at 6.25 to 50 ug/ml after 24 hrs by Western blot analysis; format: functional, cell-based
[27] = Cytotoxicity against human U937 cells assessed as growth inhibition after 24 hrs by MTT assay; format: functional, cell-based; conditions: U-937, 24 h
[28] = Cytotoxicity against human Jurkat T cells assessed as growth inhibition after 24 hrs by MTT assay; format: functional, cell-based
[29] = Induction of cell differentiation in human U937 cells assessed as upregulation of CD68 at 6.25 ug/ml after 72 hrs by flow cytometry (reference value: 5.9%); format: functional, cell-based; conditions: U-937
Jurkat [30] = test: Induction of apoptosis in human Jurkat T cells assessed as procaspase 3 degradation at 6.25 to 50 ug/ml after 24 hrs by Western blot analysis; format: functional, cell-based
[31] = Cytotoxicity against human Jurkat T cells assessed as growth inhibition after 12 hrs by MTT assay; format: functional, cell-based
[32] = Cell cycle arrest in human Jurkat T cells assessed as accumulation at sub G1 phase at 25 ug/ml after 24 hrs by propidium iodide staining based flow cytometry (reference value: 0.9%); format: functional
[33] = Induction of cell differentiation in human U937 cells assessed as upregulation of CD68 at 0.1 uM after 72 hrs by flow cytometry (reference value: 5.9%); format: functional, cell-based; conditions: U-937
K562 [34] = test: Induction of cell differentiation in human K562 cells assessed as upregulation of CD14 at 0.1 uM after 72 hrs by flow cytometry (reference value: 6.4%); format: functional
[35] = Induction of cell differentiation in human U937 cells assessed as upregulation of CD14 at 0.1 uM after 72 hrs by flow cytometry (reference value: 4.3%); format: functional, cell-based; conditions: U-937
U-937 [36] = test: Induction of phagocytosis in human U937 cells at 0.1 uM measured using fluorescent latex beads after 2 hrs by flow cytometry; format: functional, cell-based
K562 [37] = test: Induction of phagocytosis in human K562 cells at 0.1 uM preincubated for 4 to 6 days followed by addition of fluorescent latex beads measured after 2 hrs by flow cytometry; format: functional, cell-based

With CC[C@@]1(O)C(=O)OCc2c1cc1n(c2=O)Cc2cc3ccccc3nc2-1 the Activity [1] was “inactive”, the Activity (U-937 [2]) was “inactive” and the Activity (K562 [3]) was “inactive”. The Activity (K562 [4]) was “inactive”.

In the case of C=C1CCC[C@]2(C)C=C3OC(=O)C(C)=C3C[C@@H]12 [ATRACTYLENOLIDE I], the Activity (U-937 [5]) is reported as “Active”, the Activity (K562 [6]) is reported as 18.1% and the Activity [7] is reported as 84.3%. The Activity (U-937 [8]) was 50%, the Activity (U-937 [9]) was “Active” and the Activity (K562 [10]) was greater than 50%. The Activity (Jurkat [11]) was “Active”, the Activity (K562 [12]) was 13.4% and the Activity [13] was 32.3%. For the same molecule, the IC50 [14] was 24.4 µg/mL (≈ 106 µM), the “growth inhibition (GI)” value (K562 [15]) was “Active” and the Activity [16] was 25.6%. The Activity (Jurkat [17]) was “Active”, the Activity [18] was 7.5% and the Activity (Jurkat [19]) was “Active”. The Activity [20] was greater than 50%, the IC50 [21] was 4.23 µg/mL (≈ 18.4 µM) and the Activity (Jurkat [22]) was “Active”. The Activity (K562 [23]) was “Active”, the Activity (U-937 [24]) was “Active” and the Activity (U-937 [25]) was “Active”. For the same molecule, the Activity (U-937 [26]) was “Active”, the IC50 [27] was 14.9 µg/mL (≈ 64.7 µM) and the IC50 [28] was 37.6 µg/mL (≈ 163 µM). For the same molecule, the Activity [29] was 53.3%, the Activity (Jurkat [30]) was “Active” and the IC50 [31] was 44.7 µg/mL (≈ 194 µM). For the same molecule, the Activity [32] was 20.3%.

For CCCCCCCCCCCCCC(=O)O[C@@H]1[C@@H](C)[C@@]2(O)[C@@H](C=C(CO)C[C@]3(O)C(=O)C(C)=C[C@@H]23)[C@@H]2C(C)(C)[C@]12OC(C)=O [PHORBOL MYRISTATE ACETATE], the Activity [33] was 39.2%, the Activity (K562 [34]) was 38.1% and the Activity [35] was 25%. For the same molecule, the Activity (U-937 [36]) was “Active” and the Activity (K562 [37]) was “Active”.
